Calls of active or inactive are those of the source. No cut-off for these calls is given here.
Columns and labels:
[1] = molecular target: T1, Peroxisome proliferator-activated receptor alpha (Homo sapiens) (UniProt Q07869); experiment: Agonist activity at human PPAR alpha transfected in African green monkey COS-7 cells co-transfected with CMX-Gal4 fused hPPARalpha/TK-MH100x4-Luc/renilla luciferase assessed as fold increase in luciferase activity at 10 uM incubated for 24 hrs by Dual-Glo luciferase assay; assay type: cell-based; settings: filed as agonist
T1 sequence (whole entry): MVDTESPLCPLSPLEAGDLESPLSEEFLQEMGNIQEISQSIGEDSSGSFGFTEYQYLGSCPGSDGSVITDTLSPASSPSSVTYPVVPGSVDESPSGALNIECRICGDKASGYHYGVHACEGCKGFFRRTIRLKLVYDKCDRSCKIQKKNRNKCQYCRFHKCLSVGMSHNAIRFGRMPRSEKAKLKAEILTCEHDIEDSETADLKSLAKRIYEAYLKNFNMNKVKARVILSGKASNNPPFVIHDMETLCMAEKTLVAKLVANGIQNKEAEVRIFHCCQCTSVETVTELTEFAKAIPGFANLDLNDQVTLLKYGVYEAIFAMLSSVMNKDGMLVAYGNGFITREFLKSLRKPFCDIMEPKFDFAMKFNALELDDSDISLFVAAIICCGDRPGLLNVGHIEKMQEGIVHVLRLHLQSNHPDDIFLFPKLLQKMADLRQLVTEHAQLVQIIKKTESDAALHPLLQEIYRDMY

[2] = molecular target: T2, Peroxisome proliferator-activated receptor gamma (Homo sapiens) (UniProt P37231); experiment: Agonist activity at human PPAR gamma transfected in African green monkey COS-7 cells co-transfected with CMX-Gal4 fused hPPARgamma/TK-MH100x4-Luc/renilla luciferase at 10 uM incubated for 24 hrs by Dual-Glo luciferase assay; assay type: cell-based; settings: filed as agonist
T2 sequence (whole entry): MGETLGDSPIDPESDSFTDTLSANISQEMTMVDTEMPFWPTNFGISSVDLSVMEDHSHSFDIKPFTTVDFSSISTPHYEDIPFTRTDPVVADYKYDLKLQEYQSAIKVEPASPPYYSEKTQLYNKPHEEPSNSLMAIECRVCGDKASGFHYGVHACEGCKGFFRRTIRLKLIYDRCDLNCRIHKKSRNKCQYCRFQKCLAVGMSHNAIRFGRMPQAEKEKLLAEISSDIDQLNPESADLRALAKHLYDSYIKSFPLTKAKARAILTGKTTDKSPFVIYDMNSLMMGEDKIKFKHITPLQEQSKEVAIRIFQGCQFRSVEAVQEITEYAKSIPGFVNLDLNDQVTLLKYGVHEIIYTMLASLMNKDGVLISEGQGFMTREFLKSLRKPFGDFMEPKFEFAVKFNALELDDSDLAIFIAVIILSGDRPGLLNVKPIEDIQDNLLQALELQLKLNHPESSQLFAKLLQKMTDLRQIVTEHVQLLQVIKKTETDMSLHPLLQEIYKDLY

[3] = system: COS-7; experiment: Cytotoxicity against African green monkey COS-7 cells assessed as cell viability at 1 to 30 uM incubated for 24 hrs by MTT assay; assay type: toxicity, cell-based; settings: chlorocebus aethiops, cos-7, 24 h, dose 1-30 µM
[4] = molecular target: T2, Peroxisome proliferator-activated receptor gamma (Homo sapiens); experiment: Agonist activity at human PPAR gamma transfected in African green monkey COS-7 cells co-transfected with CMX-Gal4 fused hPPARgamma/TK-MH100x4-Luc/renilla luciferase assessed as fold increase in luciferase activity at 10 uM incubated for 24 hrs by Dual-Glo luciferase assay; assay type: cell-based

C=C(C)C(Cc1c(OC)cc(CCc2ccccc2)c(C(=O)O)c1O)OO (racemic)
fold change (FC) [1]: 5 | Activity [2]: Active

COc1cc(C#Cc2ccccc2)cc(OC)c1CC=C(C)C
Activity [3]: Toxic

COc1cc(CCc2ccccc2)cc(OC)c1CC=C(C)C
Activity [3]: Toxic

COc1cc(CCc2ccccc2)cc(O)c1CC=C(C)C
Activity [3]: Toxic

CC(C)=CCc1c(O)cc(CCc2ccccc2)cc1O
Activity [3]: Toxic

CC(C)=CCc1c(O)cc(CCc2ccccc2)c(CC=C(C)C)c1O
Activity [3]: Toxic

CCCCCc1cc(OC)c(CC=C(C)C)c(O)c1C(=O)O
Activity [3]: Toxic

COc1c(CC=C(C)C)c(O)c(C(=O)O)c(CCc2ccccc2)c1CC=C(C)C
Activity [2]: Active

COc1cc(CCc2ccccc2)c(C(=O)O)c2c1[C@H](OC)[C@@H](C(C)(C)O)O2
Activity [3]: Toxic

CCCCCc1cc(O)c(CC=C(C)C)c(O)c1CC=C(C)C
fold change (FC) [1]: 5

COc1cc(CCc2ccccc2)c(C(=O)O)c2occc12
fold change (FC) [1]: 5

COc1cc(/C=C/c2ccccc2)cc(OC)c1CC=C(C)C
Activity [3]: Toxic

COc1cc(CCc2ccccc2)c(C(=O)O)c(O)c1CC=C(C)C
fold change (FC) [1]: 5 | Activity [2]: Active | fold change (FC) [4]: > 20

CCCCCc1cc(OC)c2c(c1C(=O)O)OC(C(C)(C)O)C2 (racemic)
fold change (FC) [1]: 5

COc1cc(/C=C/c2ccccc2)cc(O)c1CC=C(C)C
Activity [3]: Toxic

C=C(C)C(O)Cc1c(OC)cc(CCCCC)c(C(=O)O)c1O (racemic)
fold change (FC) [1]: 5 | Activity [2]: Active

C=C(C)C(O)Cc1c(OC)cc(CCc2ccccc2)c(C(=O)O)c1O (racemic)
fold change (FC) [1]: 5 | Activity [2]: Active
